Consider 15 compounds from PubChem BioAssay (NCI).

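Growth conditions: 96-well plates. Treatment: test compound, 48 hours, 5 concentrations. Analysis: linear interpolation between bracketing concentrations; unreached endpoints set to highest concentration. GI50: concentration for 50% inhibition of growth. TGI: concentration producing complete growth inhibition.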

Some test systems named below: CAKI-1 renal; SR leukemia; A549 NSCLC; HCT-116 colon; CCRF-CEM leukemia; OVCAR-8 ovarian; MOLT-4 leukemia; HOP-92 NSCLC; MDA-MB-435.
Common to all, as to assay: NCI-60 cell line screen, 48 h

With `COc1cc(C(C#N)NNC(=O)c2ccccc2O)ccc1O` (configuration not stated), the TGI with CAKI-1 renal, in the assay on SR leukemia, in the assay with A549 NSCLC, in the assay on HCT-116 colon, in the assay with CCRF-CEM leukemia and with OVCAR-8 ovarian was more than 100 µM throughout. The TGI with MOLT-4 leukemia was more than 100 µM; in the assay with HOP-92 NSCLC, 97.3 µM.

Regarding `CCCN(CCCCC(NC(C)=O)C(=O)NCc1ccccc1)C(=O)NC` (configuration not stated), the TGI with CAKI-1 renal, in the assay on A549 NSCLC, in the assay on HCT-116 colon, in the assay on CCRF-CEM leukemia, with OVCAR-8 ovarian and in the assay on MOLT-4 leukemia was more than 100 µM in each case. In the assay with HOP-92 NSCLC, this compound came in with a TGI of more than 100 µM.

For the compound `c1cc2c(cnc3cscc32)s1`, the TGI in the assay on CAKI-1 renal, with SR leukemia, in the assay on A549 NSCLC, in the assay with HCT-116 colon, in the assay on CCRF-CEM leukemia and in the assay with OVCAR-8 ovarian was more than 100 µM in each case. Further, the TGI with MOLT-4 leukemia and in the assay with HOP-92 NSCLC was more than 100 µM each time.

Regarding `O=C1c2cccc3cc([N+](=O)[O-])cc(c23)C(=O)N1CCCN1CCN(CCCN2C(=O)c3cccc4cc([N+](=O)[O-])cc(c34)C2=O)CC1`, the TGI was more than 100 µM with A549 NSCLC; 1.34 µM with HCT-116 colon; more than 100 µM with CCRF-CEM leukemia; more than 100 µM with OVCAR-8 ovarian; more than 100 µM in the assay with MOLT-4 leukemia; 5.2 µM with HOP-92 NSCLC.

With `COC(=O)/C(=N/NC(C)(C)C)C(C(=O)C=C(C)C)C(=O)C(=O)Nc1ccc(Cl)cc1C` (configuration not stated), the TGI in the assay with CAKI-1 renal, in the assay with SR leukemia, with A549 NSCLC, in the assay on HCT-116 colon, in the assay on CCRF-CEM leukemia and with OVCAR-8 ovarian was more than 100 µM throughout. Besides, in the assay on MOLT-4 leukemia, the TGI was more than 100 µM.

Regarding `O=C(N=Nc1c(O)[nH]c2ccccc12)c1ccccc1O`, the TGI in the assay with A549 NSCLC, with HCT-116 colon, with CCRF-CEM leukemia, with OVCAR-8 ovarian and with MOLT-4 leukemia was more than 100 µM throughout.

Regarding `c1c[nH]c(Cc2ncc(Cc3cnc[nH]3)[nH]2)n1`, the TGI in the assay with CAKI-1 renal was more than 100 µM; in the assay on A549 NSCLC it was more than 100 µM; in the assay with HCT-116 colon, more than 100 µM; with CCRF-CEM leukemia it was 58.7 µM; in the assay on OVCAR-8 ovarian it was more than 100 µM; with MOLT-4 leukemia it was more than 100 µM. Moreover, in the assay on HOP-92 NSCLC, the TGI is more than 100 µM.

Take `CCOC(=O)/C=C(/CN1C(=O)c2ccccc2C1=O)c1ccccc1`: the TGI in the assay on CAKI-1 renal, with A549 NSCLC, in the assay with HCT-116 colon, in the assay on CCRF-CEM leukemia, with OVCAR-8 ovarian and with MOLT-4 leukemia was more than 100 µM throughout. In the assay on HOP-92 NSCLC, the TGI was more than 100 µM.

For `CCCCCCCCCCCC(=O)C1=C(O)C(O)CCC1=O` (configuration not stated), the TGI in the assay with CAKI-1 renal was 70.6 µM; in the assay on A549 NSCLC, more than 100 µM; with HCT-116 colon, 38.5 µM; in the assay on CCRF-CEM leukemia, 40.6 µM; with OVCAR-8 ovarian it was 36.6 µM; in the assay with MOLT-4 leukemia, 60.3 µM. For the same compound, the TGI with HOP-92 NSCLC is 48.3 µM.

For the compound `[Cl][Sn]([c]1ccccc1)[c]1ccccc1`, the GI50 was 2.54 µM in the assay with CAKI-1 renal; 3.39 µM with SR leukemia; 17.5 µM in the assay on A549 NSCLC; 6.91 µM in the assay with HCT-116 colon; 1.85 µM in the assay with CCRF-CEM leukemia; 11.5 µM with OVCAR-8 ovarian. For the same compound, the GI50 was 2.91 µM in the assay with MOLT-4 leukemia and 3.61 µM in the assay on HOP-92 NSCLC. The TGI in the assay on CAKI-1 renal came to 8.98 µM; in the assay with SR leukemia it was 17.5 µM; in the assay on A549 NSCLC, 36.2 µM; with HCT-116 colon, 22.9 µM; with CCRF-CEM leukemia, 5.85 µM; with OVCAR-8 ovarian, 17.2 µM. In addition, the TGI was 28.9 µM with MOLT-4 leukemia and 8.69 µM in the assay on HOP-92 NSCLC.

As for `c1ccc(COc2ccc3[nH]c4c(ncc5[nH]c6ccccc6c54)c3c2)cc1`, the TGI was found to be 47.5 µM with CAKI-1 renal; 30.3 µM with SR leukemia; 34.9 µM with A549 NSCLC; 27 µM in the assay on HCT-116 colon; 40.7 µM with CCRF-CEM leukemia; 32.2 µM with OVCAR-8 ovarian. In addition, the TGI came to 31.6 µM in the assay on MOLT-4 leukemia and 29.9 µM in the assay on HOP-92 NSCLC.

`CC(C)(C)N=CN1CCC(C(c2ccccc2)c2ccccc2)CC1`: the TGI in the assay with CAKI-1 renal, in the assay on A549 NSCLC, in the assay on HCT-116 colon, in the assay with OVCAR-8 ovarian and in the assay on HOP-92 NSCLC was more than 100 µM throughout.

For the compound `Cn1nnnc1[N-]Cc1ccccc1.[Au+].c1ccc([PH+](c2ccccc2)c2ccccc2)cc1`, the GI50 with CAKI-1 renal is 2.29 µM; in the assay on A549 NSCLC, 21.2 µM; in the assay on HCT-116 colon, 3.88 µM; with CCRF-CEM leukemia, 0.752 µM; with OVCAR-8 ovarian, 3.13 µM; with MOLT-4 leukemia, 1.67 µM. Further, in the assay on HOP-92 NSCLC, the GI50 is 2.44 µM. In addition, the TGI was determined as 4.99 µM in the assay with CAKI-1 renal; 71.3 µM in the assay on A549 NSCLC; 13 µM in the assay on HCT-116 colon; 3.95 µM in the assay on CCRF-CEM leukemia; 10.1 µM in the assay with OVCAR-8 ovarian; 4.75 µM in the assay with MOLT-4 leukemia. This compound also showed a TGI in the assay with HOP-92 NSCLC of 4.68 µM.

Take `CC(SC1=CC(=O)c2c(O)ccc(O)c2C1=O)C(=O)O` (configuration not stated): the TGI was 72.2 µM in the assay with CAKI-1 renal; more than 100 µM in the assay on SR leukemia; more than 100 µM with A549 NSCLC; more than 72.3 µM in the assay with HCT-116 colon; 14.8 µM with CCRF-CEM leukemia; more than 89.3 µM in the assay on OVCAR-8 ovarian. The TGI in the assay with MOLT-4 leukemia is 60.7 µM; in the assay with HOP-92 NSCLC, more than 83.1 µM.

Turning to `CC1=C(N2CC2)C(=O)c2nc3n(c2C1=O)CCC3O` (configuration not stated), the TGI with CAKI-1 renal stood at 0.777 µM; in the assay with SR leukemia, 35.6 µM; in the assay on A549 NSCLC, 1.49 µM; in the assay with HCT-116 colon it was 1.52 µM; in the assay on CCRF-CEM leukemia, 13.4 µM; in the assay on OVCAR-8 ovarian, 0.688 µM. Besides, the TGI in the assay on MOLT-4 leukemia was determined as 21.1 µM; with HOP-92 NSCLC, 5.72 µM; with MDA-MB-435, 0.0484 µM.
